Measured values from patent US7067522B2, “2,4,DI (hetero-) arylamino (-oxy)-5-substituted pyrimidines as antineoplastic agents” (AstraZeneca AB, priority 2000, dated 2006).

Experiments:
[1] = biological target: T1, CDK4/Cyclin D1 (Homo sapiens, UniProt P11802); test: CDK4 Inhibition Assay (Scintillation Proximity Assay, GST-Retinoblastoma substrate); assay type: biochemical; settings: in vitro kinase assay, 0.2 μM ATP; read-out: CDK4 inhibitory activity IC50
T1 construct: made in house; host or cells: Sf21 insect cells, baculovirus co-infection (pVL1393)
Procedure: The compounds were tested in an in vitro kinase assay in 96 well format using Scintillation Proximity Assay (SPA-obtained from Amersham) for measuring incorporation of [γ-33-P]-Adenosine Triphosphate into a test substrate (GST-Retinoblastoma). In each well was placed the compound to be tested (diluted in DMSO and water to correct concentrations) and in control wells either p16 as an inhibitor control or DMSO as a positive control.
Approximately 0.5 μl of CDK4/Cyclin D1 partially-purified enzyme (amount dependent on enzyme activity) diluted in 25 μl incubation buffer was added to each well then 20 μl of GST-Rb/ATP/ATP33 mixture (containing 0.5 μg GST-Rb and 0.2 μM ATP and 0.14 μCi [γ-33-P]-Adenosine Triphosphate), and the resulting mixture shaken gently, then incubated at room temperature for 60 minutes.
To each well was then added 150 μL stop solution containing (0.8 mg/well of Protein A-PVT SPA bead (Amersham)), 20 pM/well of Anti-Glutathione Transferase, Rabbit IgG (obtained from Molecular Probes), 61 mM EDTA and 50 mM HEPES pH 7.5 containing 0.05% sodium azide.
The plates were sealed with Topseal-S plate sealers, left for two hours then spun at 2500 rpm, 1124 xg., for 5 minutes. The plates were read on a Topcount for 30 seconds per well. […]

[2] = biological target: T2, human Focal Adhesion Kinase (FAK) (Homo sapiens, UniProt Q05397); test: FAK3 Kinase Inhibition Assay (in vitro enzyme assay); assay type: biochemical; settings: read-out: FAK inhibitory activity IC50
T2 construct: FAK (full length human cDNA described by Andre et al); made in house; host or cells: Sf21 insect cells, baculovirus (pFastbac 1); cleared cell lysate used as enzyme stock
Source text: FAK3 Kinase Inhibition Assay
This assay determines the ability of a test compound to inhibit tyrosine kinase activity of human Focal Adhesion Kinase (FAK).
Active FAK protein has been previously expressed in a baculovirus system using a similar N-terminal 6-histidine tag (Protein Expression And Purification, 1996, 7: 12–18). The human FAK cDNA was cloned into the baculovirus transplacement vector, pFastbac 1 (Life Technologies), and the recombinant construct was co-transfected into insect cells (for example Spodoptera frugiperda 21(Sf21)) with viral DNA to prepare recombinant baculovirus (details of the methods for the assembly of recombinant DNA molecules and the preparation and use of recominant baculovirus can be found in standard texts for example Sambrook et al, 1989, Molecular cloning-A Laboratory Manual, 2nd edition, Cold Spring Harbour Laboratory Press and O'Reilly et al, 1992, Baculovirus Expression Vectors-A Laboratory Manual, W. H. Freeman and Co, New York. Details specific to the use of the pFastbac (‘Bac to Bac’) system are provided in Anderson et al., 1995, FOCUS (Life Technologies Bulletin Magazine), 17, p53.)
For expression of biologically active human FAK protein, Sf21 cells were infected with plaque-pure FAK recombinant virus at a multiplicity of infection of 3 and harvested 48 hours later. […]

T2 sequence (Q05397 whole entry): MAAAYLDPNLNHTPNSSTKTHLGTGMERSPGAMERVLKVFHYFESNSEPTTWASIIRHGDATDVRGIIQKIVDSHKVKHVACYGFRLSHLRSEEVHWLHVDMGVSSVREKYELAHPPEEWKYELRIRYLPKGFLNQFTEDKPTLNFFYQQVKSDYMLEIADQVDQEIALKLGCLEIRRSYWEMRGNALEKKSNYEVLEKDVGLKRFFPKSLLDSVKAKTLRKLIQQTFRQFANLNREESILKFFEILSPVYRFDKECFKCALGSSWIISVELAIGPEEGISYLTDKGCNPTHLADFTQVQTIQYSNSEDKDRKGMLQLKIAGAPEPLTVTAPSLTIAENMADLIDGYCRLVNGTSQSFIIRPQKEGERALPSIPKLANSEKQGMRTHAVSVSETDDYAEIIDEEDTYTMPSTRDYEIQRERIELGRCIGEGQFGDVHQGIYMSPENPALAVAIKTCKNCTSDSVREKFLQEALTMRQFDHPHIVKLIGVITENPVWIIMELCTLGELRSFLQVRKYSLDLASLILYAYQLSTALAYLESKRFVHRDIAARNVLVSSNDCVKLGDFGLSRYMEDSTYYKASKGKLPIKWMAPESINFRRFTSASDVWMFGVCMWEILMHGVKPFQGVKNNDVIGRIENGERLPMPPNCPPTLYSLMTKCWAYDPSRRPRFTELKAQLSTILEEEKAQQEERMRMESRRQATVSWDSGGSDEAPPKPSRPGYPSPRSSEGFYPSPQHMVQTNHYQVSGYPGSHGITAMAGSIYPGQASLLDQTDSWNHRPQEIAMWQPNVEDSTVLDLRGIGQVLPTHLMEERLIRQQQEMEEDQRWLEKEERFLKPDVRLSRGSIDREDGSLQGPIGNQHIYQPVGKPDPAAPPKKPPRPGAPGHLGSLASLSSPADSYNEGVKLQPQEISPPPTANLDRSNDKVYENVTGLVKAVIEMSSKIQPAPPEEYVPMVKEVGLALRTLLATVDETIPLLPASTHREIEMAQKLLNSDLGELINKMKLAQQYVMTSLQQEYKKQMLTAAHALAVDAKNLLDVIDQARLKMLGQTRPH
T1 sequence (P11802 whole entry): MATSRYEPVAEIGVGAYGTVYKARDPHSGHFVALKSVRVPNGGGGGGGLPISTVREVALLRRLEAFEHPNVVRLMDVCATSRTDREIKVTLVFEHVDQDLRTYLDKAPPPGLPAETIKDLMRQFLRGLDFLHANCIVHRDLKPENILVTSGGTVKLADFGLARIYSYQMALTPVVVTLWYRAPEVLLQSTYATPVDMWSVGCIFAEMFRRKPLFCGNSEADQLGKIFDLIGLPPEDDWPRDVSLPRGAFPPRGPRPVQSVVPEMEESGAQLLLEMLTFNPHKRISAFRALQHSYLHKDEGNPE
T1 sequence (P24385 whole entry partner): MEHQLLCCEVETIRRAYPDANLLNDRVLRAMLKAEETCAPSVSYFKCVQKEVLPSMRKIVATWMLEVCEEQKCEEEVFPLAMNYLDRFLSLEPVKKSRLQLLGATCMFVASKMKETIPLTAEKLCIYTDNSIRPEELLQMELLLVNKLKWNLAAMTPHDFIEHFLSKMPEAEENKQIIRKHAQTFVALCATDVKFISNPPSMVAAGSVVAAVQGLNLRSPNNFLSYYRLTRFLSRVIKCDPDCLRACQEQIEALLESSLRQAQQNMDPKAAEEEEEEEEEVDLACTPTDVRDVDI

SMILES | IC50 [1] [nM] | IC50 [2] [nM]
OCCOCc1ccc(Nc2ncc(Br)c(Nc3ccccc3)n2)cc1 [Example 31, 4-Anilino-5-bromo-2-[4-(2-hydroxyethoxy)methylanilino]pyrimidine] | 679 | 
CCN(CC)CCOc1ccc(Nc2ncc(Br)c(Nc3ccccc3)n2)cc1 [Example 25] |  | 218
